From patent publication US6737383B1, “Herbicidal oxadiazolidines” (priority 1999, dated 2004)

Columns and labels:
green foxtail [1] = test: Test E green foxtail; type: in vivo, Setaria viridis; conditions: Preemergence
winter barley = test: Test E winter barley; type: in vivo, Hordeum vulgare; conditions: Preemergence
winter wheat [2] = test: Test E winter wheat; type: in vivo, Triticum aestivum; conditions: Preemergence
bermuda-grass = test: Test D bermudagrass; type: in vivo, Cynodon dactylon; conditions: Preemergence, 0 to 100 scale
In short: (§1)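 Visual injury ratings, 0 = no injury to 100 = complete control, taken 14 to 21 days after treatment. Test chemicals were in a surfactant-containing non-phytotoxic solvent; preemergence treatments went onto the sandy loam surface of seeded greenhouse pots within one day of sowing.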

Spanishneedles = test: Test D Spanishneedles; type: in vivo, Bidens bipinnata; conditions: Preemergence, 0 to 100 scale
In short: as §1

wild oat = test: Test E wild oat; type: in vivo, Avena fatua; conditions: Preemergence
winter wheat [3] = test: Test E winter wheat; type: in vivo, Triticum aestivum; conditions: Postemergence
In short: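 Greenhouse-grown plants are treated (postemergence: 1- to 4-leaf stage, sandy loam/potting mix 60:40), then evaluated visually versus untreated controls some 21 to 28 days later.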

pitted morningglory = test: Test D pitted morningglory; type: in vivo, Ipomoea lacunosa; conditions: Preemergence, 0 to 100 scale
In short: as §1

Green foxtail [4] = test: Test D green foxtail; type: in vivo
In short: as §1

rape = test: Test B pre/postemergence rape; type: in vivo, Brassica napus
In short: (§2)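 Response is a visual 0-to-10 score relative to untreated plants, where 0 means no effect and 10 means complete control, taken twelve to sixteen days after application. Treatments went onto soil at planting and onto foliage of 1- to 4-leaf plants, using a surfactant-containing non-phytotoxic solvent.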

pigweed = test: Test B pre/postemergence pigweed; type: in vivo, Amaranthus retroflexus
In short: as §2

Italian ryegrass = test: Test E Italian ryegrass; type: in vivo, Lolium multiflorum; conditions: Preemergence
itchgrass = test: Test D itchgrass; type: in vivo, Rottboellia exaltata; conditions: Preemergence, 0 to 100 scale
In short: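 Scoring used a 0–100 visual injury scale, with 0 meaning no effect and 100 complete control, assessed 14–21 days after application alongside untreated pots. Preemergence treatments went onto sandy loam surfaces of separately potted seeds within a day of sowing.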

blackgrass = test: Test E blackgrass; type: in vivo, Alopecurus myosuroides; conditions: Preemergence
sugar beet = test: Test B pre/postemergence sugar beet; type: in vivo, Beta vulgaris; conditions: for Sugarbeets plant response rating (0 to 10 scale): 0 is no effect; for Plant response rating, Sugarbeets: Rate 250 g/ha
In short: as §2

[5] = Rate 62 g/ha, 0 to 100 scale, 0 no effect, 100 complete control
[6] = Rate 125 g/ha, 0 to 100 scale (0 no effect, 100 complete control)
[7] = Rate 16 g/ha, 0 no injury, 100 complete control
[8] = Rate 32 g/ha, 0 no injury, 100 complete control
[9] = Rate 64 g/ha, 0 no injury, 100 complete control
[10] = Rate 125 g/ha, 0 no injury, 100 complete control
[11] = Rate 250 g/ha, 0 to 100 scale (0 no effect, 100 complete control)
[12] = Rate 64 g/ha, Preemergence; 0 to 100 scale, 0 no injury, 100 complete control
[13] = Rate 125 g/ha, Preemergence; 0 to 100 scale, 0 no injury, 100 complete control
[14] = Rate 250 g/ha; Preemergence; 0 to 100 scale
[15] = Rate 500 g/ha, Preemergence; 0 to 100 scale
[16] = Postemergence, Rate 125 g/ha, scale of 0 to 10 where 0 is no effect and 10 is complete control
[17] = Postemergence, Rate 250 g/ha, scale 0 to 10, 0 no effect, 10 complete control
[18] = Preemergence, Rate 62 g/ha, scale 0 to 10 (0 no effect, 10 complete control)
[19] = Preemergence, Rate 125 g/ha, scale 0 to 10 (0 no effect, 10 complete control)
[20] = Preemergence, Rate 250 g/ha, scale of 0 to 10 where 0 is no effect and 10 is complete control
[21] = Preemergence, Rate 500 g/ha, scale 0 to 10 (0 no effect, 10 complete control)
[22] = Rate 62 g/ha, Postemergence, scale of 0 to 10 where 0 is no effect and 10 is complete control
[23] = Rate 500 g/ha, Postemergence, scale 0 to 10, 0 no effect, 10 complete control
[24] = Rate 250 g/ha, Postemergence, scale 0 to 10, 0 is no effect, 10 is complete control
[25] = Preemergence, Rate 125 g/ha, 10 is complete control
[26] = Preemergence, scale of 0 to 10 where 0 is no effect and 10 is complete control
[27] = Postemergence, scale 0 to 10, 0 is no effect, 10 is complete control

CCn1c(=O)on(C(=O)N(c2ccc(Cl)cc2)C(C)C)c1=O [Compound 108]
4: Plant response rating, Sugarbeets (sugar beet; [26])
15: Plant response rating, Wild oat (wild oat; [5])
8: Sugarbeets plant response rating (sugar beet; [21])
45: Plant response rating, I. Ryegrass (Italian ryegrass; [6])
9: Rape plant response rating (rape; [21])
65: Plant response rating, Green foxtail (green foxtail [1]; [5])
10: Plant response rating, Barley (winter) (winter barley; [5]) | Plant response rating, Barley (winter) (winter barley; Rate 250 g/ha, 0 to 100 scale) | Plant response rating, Wheat (winter) (winter wheat [2]; [6]) | Plant response rating, Wheat (winter) (winter wheat [2]; Rate 250 g/ha, 0 to 100 scale) | Plant response rating, Redroot pigweed (pigweed; [20]) | Redroot pigweed plant response rating (pigweed; [21])
3: Plant response rating, Redroot pigweed (pigweed; [19]) | Redroot pigweed plant response rating (pigweed; [23]) | Sugarbeets plant response rating (sugar beet; [18]) | Sugarbeets plant response rating (0 to 10 scale) (sugar beet; [25])
20: Plant response rating, Barley (winter) (winter barley; [6]) | Plant response rating, Spanishneedles (Spanishneedles; Rate 500 g/ha) | Plant response rating, Wheat (winter) (winter wheat [3]; Rate 125 g/ha, 0 to 100 scale) | Plant response rating, I. Ryegrass (Italian ryegrass; [5]) | Plant response rating, Itchgrass (itchgrass; [8])
85: Plant response rating, Bermudagrass (bermuda-grass; [7])
7: Plant response rating, Rape (rape; [20])
40: Plant response rating, Wheat (winter) (winter wheat [3]; [11]) | Plant response rating, Green foxtail (Green foxtail [4]; Preemergence; Rate 16 g/ha; 0 to 100 scale, 0 no injury, 100 complete control) | Plant response rating, Green foxtail (Green foxtail [4]; Rate 16 g/ha; Preemergence; 0 to 100 scale, 0 no injury, 100 complete control) | Plant response rating, Itchgrass (itchgrass; [10]) | Plant response rating, Blackgrass (blackgrass; [5])
75: Plant response rating, Blackgrass (blackgrass; [6])
2: Rape plant response rating (rape; [23]) | Plant response rating, Sugarbeets (sugar beet; [27]) | Sugarbeets plant response rating (sugar beet; [23])
30: Plant response rating, Wild oat (wild oat; [6]) | Plant response rating, Itchgrass (itchgrass; [9])
0: Plant response rating, Wheat (winter) (winter wheat [2]; [5]) | Plant response rating, Spanishneedles (Spanishneedles; [7]) | Plant response rating, Spanishneedles (Spanishneedles; [8]) | Spanishneedles plant response rating (Spanishneedles; [9]) | Spanishneedles plant response rating (Spanishneedles; [10]) | Plant response rating, Wheat (winter) (winter wheat [3]; Rate 62 g/ha, 0 to 100 scale) | Plant response rating, P. morninglory (pitted morningglory; [7]) | Plant response rating, P. morninglory (pitted morningglory; [8]) | Plant response rating, P. morninglory (pitted morningglory; [9]) | Plant response rating, P. morninglory (pitted morningglory; [10]) | Plant response rating, P. morninglory (pitted morningglory; Rate 250 g/ha) | Plant response rating, P. morninglory (pitted morningglory; Rate 500 g/ha) | Rape plant response rating (rape; [16]) | Rape plant response rating (rape; [17]) | Rape plant response rating (rape; [18]) | Plant response rating, Rape (rape; [19]) | Rape plant response rating (rape; [22]) | Redroot pigweed plant response rating (pigweed; [16]) | Redroot pigweed plant response rating (pigweed; [22]) | Plant response rating, Redroot pigweed (pigweed; [24]) | Plant response rating, Itchgrass (itchgrass; [7]) | Sugarbeets plant response rating (sugar beet; [16]) | Sugarbeets plant response rating (sugar beet; [22])
95: Plant response rating, I. Ryegrass (Italian ryegrass; Rate 250 g/ha, 0 to 100 scale)
100: Plant response rating, Bermudagrass (bermuda-grass; [9]) | Plant response rating, Bermudagrass (bermuda-grass; [10]) | Plant response rating, Bermudagrass (bermuda-grass; Rate 250 g/ha) | Plant response rating, Bermudagrass (bermuda-grass; Rate 500 g/ha) | Plant response rating, Green foxtail (Green foxtail [4]; Preemergence; Rate 32 g/ha; 0 to 100 scale, 0 no injury, 100 complete control) | Plant response rating, Green foxtail (Green foxtail [4]; Rate 32 g/ha; Preemergence; 0 to 100 scale, 0 no injury, 100 complete control) | Green foxtail plant response rating (Green foxtail [4]; [12]) | Plant response rating, Green foxtail (Green foxtail [4]; [12]) | Green foxtail plant response rating (Green foxtail [4]; [13]) | Plant response rating, Green foxtail (Green foxtail [4]; [13]) | Plant response rating, Green foxtail (Green foxtail [4]; [14]) | Plant response rating, Green foxtail (Green foxtail [4]; [15]) | Plant response rating, Itchgrass (itchgrass; Rate 500 g/ha)
98: Plant response rating, Bermudagrass (bermuda-grass; [8]) | Plant response rating, Itchgrass (itchgrass; Rate 250 g/ha)
90: Plant response rating, Green foxtail (green foxtail [1]; Rate 250 g/ha, 0 to 100 scale) | Plant response rating, Blackgrass (blackgrass; Rate 250 g/ha, 0 to 100 scale)

CC(C)N(C(=O)n1oc(=O)n(C2CCCCC2)c1=O)c1ccc(F)cc1 [Compound 110]
2: Rape plant response rating (rape; [22]) | Plant response rating, Sugarbeets (sugar beet; [26])
7: Plant response rating, Redroot pigweed (pigweed; [20])
4: Rape plant response rating (rape; [16]) | Rape plant response rating (rape; [17]) | Plant response rating, Rape (rape; [20]) | Redroot pigweed plant response rating (pigweed; [16])
85: Plant response rating, Green foxtail (green foxtail [1]; Rate 250 g/ha, 0 to 100 scale)
50: Plant response rating, Blackgrass (blackgrass; [6])
6: Rape plant response rating (rape; [23]) | Plant response rating, Redroot pigweed (pigweed; [19]) | Redroot pigweed plant response rating (pigweed; [23])
0: Plant response rating, Barley (winter) (winter barley; [5]) | Plant response rating, Barley (winter) (winter barley; [6]) | Plant response rating, Wheat (winter) (winter wheat [2]; [5]) | Plant response rating, Wheat (winter) (winter wheat [2]; [6]) | Plant response rating, Wheat (winter) (winter wheat [2]; Rate 250 g/ha, 0 to 100 scale) | Plant response rating, Spanishneedles (Spanishneedles; Rate 500 g/ha) | Plant response rating, Wild oat (wild oat; [5]) | Plant response rating, Wild oat (wild oat; [6]) | Plant response rating, Wheat (winter) (winter wheat [3]; Rate 62 g/ha, 0 to 100 scale) | Plant response rating, Wheat (winter) (winter wheat [3]; Rate 125 g/ha, 0 to 100 scale) | Plant response rating, Wheat (winter) (winter wheat [3]; [11]) | Plant response rating, P. morninglory (pitted morningglory; Rate 250 g/ha) | Plant response rating, P. morninglory (pitted morningglory; Rate 500 g/ha) | Rape plant response rating (rape; [18]) | Plant response rating, I. Ryegrass (Italian ryegrass; [5]) | Plant response rating, I. Ryegrass (Italian ryegrass; [6]) | Sugarbeets plant response rating (sugar beet; [18]) | Sugarbeets plant response rating (sugar beet; [22])
60: Plant response rating, Green foxtail (green foxtail [1]; [6]) | Plant response rating, Blackgrass (blackgrass; Rate 250 g/ha, 0 to 100 scale)
40: Plant response rating, Itchgrass (itchgrass; Rate 250 g/ha) | Plant response rating, Itchgrass (itchgrass; Rate 500 g/ha)
8: Rape plant response rating (rape; [21]) | Redroot pigweed plant response rating (pigweed; [21])
3: Redroot pigweed plant response rating (pigweed; [18]) | Redroot pigweed plant response rating (pigweed; [22]) | Sugarbeets plant response rating (sugar beet; [16]) | Plant response rating, Sugarbeets (sugar beet; [27]) | Sugarbeets plant response rating (sugar beet; [23])
1: Plant response rating, Rape (rape; [19]) | Sugarbeets plant response rating (0 to 10 scale) (sugar beet; [25])
5: Plant response rating, Barley (winter) (winter barley; Rate 250 g/ha, 0 to 100 scale) | Plant response rating, Redroot pigweed (pigweed; [24]) | Sugarbeets plant response rating (sugar beet; [21])
30: Plant response rating, Green foxtail (green foxtail [1]; [5])
100: Plant response rating, Bermudagrass (bermuda-grass; Rate 250 g/ha) | Plant response rating, Bermudagrass (bermuda-grass; Rate 500 g/ha) | Plant response rating, Green foxtail (Green foxtail [4]; [14]) | Plant response rating, Green foxtail (Green foxtail [4]; [15])
20: Plant response rating, I. Ryegrass (Italian ryegrass; Rate 250 g/ha, 0 to 100 scale) | Plant response rating, Blackgrass (blackgrass; [5])
